Series [1] has as its system HCV replicon in human hepatoma Huh-7 cell line. Kind of series: Anti-HCV replicon assay, EC50 (luciferase luminescence). It counts as cell-based. The settings on record: Hepatitis C virus, Huh-7, 72 h. A digest of the protocol: (§1)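 Cytotoxicity (CC50) read by CellTiter-Glo luminescence after 10 min, and antiviral EC50 by luciferase signal after 30 min lysis with substrate, both at room temperature. Preceding step: 3-day exposure of 6000 Huh-7 HCV replicon cells per well to compound dilution series at 37° C, 5% CO2, in 0.5% DMSO.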

Series [2] is described as follows: CC50 assay (CellTiter-Glo) in Huh-7 HCV replicon cells. Format: cell-based. Conditions: human. In outline:
as §1
A general note: In ATP-based viability assays light output follows the ATP content of the culture.

Molecules are shown by their SMILES.

`CC(Cn1cncn1)Nc1nc(NC2(C(F)(F)F)CC2)c2nc(-c3ccc(N)nc3)ccc2n1` (stereo not drawn) [Example 31, 6-(6-amino-pyridin-3-yl)-N2-(1-methyl-2-[1,2,4]triazol-1-yl-ethyl)-N4-(1-trifluoromethyl-cyclopropyl)-pyrido[3,2-d]pyrimidine-2,4-diamine]: the concentration for a half-maximal effect (EC50) in series [1] is under 100 nM. Moreover, the CC50 at 3 days in series [2] (Table 2, 3 days incubation) was over 10000 nM.

Consider `Cc1nc(C)n(-c2ccc(CNc3nc(OC4(C)CC4)c4nc(-c5cccc(S(C)(=O)=O)c5)ccc4n3)cc2)n1` [Example 203, N-(4-(3,5-dimethyl-1H-1,2,4-triazol-1-yl)benzyl)-4-(1-methylcyclopropoxy)-6-(3-(methylsulfonyl)phenyl)pyrido [3,2-d]pyrimidin-2-amine], for which, in series [1], the EC50 was under 100 nM. Further, the 50% cytotoxic concentration (CC50) at 3 days in series [2] (Table 2, 3 days incubation) is over 10000 nM.

Turning to `CC1(Oc2nc(NCc3ccc(-n4cncn4)cc3)nc3ccc(-c4ccc(OC5CC5)nc4)nc23)CC1` [Example 247, N-(4-(1H-1,2,4-triazol-1-yl)benzyl)-6-(6-cyclopropoxy-pyridin-3-yl)-4-(1-methylcyclo-propoxy)pyrido[3,2-d]pyrimidin-2-amine], in series [1], the EC50 was under 100 nM. Also, in series [2] (Table 2, 3 days incubation), the CC50 at 3 days lay in the range of 1000 to 10000 nM.

In series [1], `CCOc1nc(NCc2ccc(-n3cncn3)cc2)nc2ccc(-c3cccc(S(C)(=O)=O)c3)nc12` [Example 190, N-(4-(1H-1,2,4-triazol-1-yl)benzyl)-4-ethoxy-6-(3-(methylsulfonyl)phenyl)pyrido [3,2-d]pyrimidin-2-amine] displayed an EC50 of under 100 nM. Besides, the CC50 at 3 days in series [2] (Table 2, 3 days incubation) was over 10000 nM.

The molecule `C[C@@H](Nc1nc(OC2CC2)c2nc(-c3ccc(OC(F)F)c(S(C)(=O)=O)c3)ccc2n1)c1ccc(S(N)(=O)=O)cc1` [Example 185, 4-((R)-1-(4-cyclopropoxy-6-(4-(difluoromethoxy)-3-(methylsulfonyl)phenyl)pyrido [3,2-d]pyrimidin-2-ylamino)ethyl)benzenesulfonamide] had a half-maximal effective concentration (EC50) in series [1] of 100 to 250 nM. This molecule showed a half-maximal cytotoxic concentration (CC50) at 3 days in series [2] (Table 2, 3 days incubation) of over 10000 nM.

As to `CCOc1ccc(-c2ccc3nc(NCc4cccc(S(C)(=O)=O)c4)nc(NCC(F)(F)F)c3n2)cn1` [Example 230, N^2-(3-(methylsulfonyl)benzyl)-6-(6-ethoxypyridin-3-yl)-N^4-(2,2,2-trifluoroethyl)pyrido [3,2-d]pyrimidine-2,4-diamine], the concentration for a half-maximal effect (EC50) in series [1] was under 100 nM. In addition, in series [2] (Table 2, 3 days incubation), the cytotoxic concentration (CC50) at 3 days is over 10000 nM.

Molecule `CS(=O)(=O)c1cccc(-c2ccc3nc(NCc4ccc(-n5cncn5)cc4)nc(OC4CC4)c3n2)c1` [Example 188, N-(4-(1H-1,2,4-triazol-1-yl)benzyl)-4-cyclopropoxy-6-(3-(methylsulfonyl)phenyl) pyrido[3,2-d]pyrimidin-2-amine] came in with an EC50 in series [1] of under 100 nM. In series [2] (Table 2, 3 days incubation), this molecule showed a CC50 at 3 days of over 10000 nM.

In series [1], `N#Cc1cc(F)ccc1-c1ccc2nc(NCc3cc(C(F)(F)F)cc(S(N)(=O)=O)c3)nc(NC3(C(F)(F)F)CC3)c2n1` [Example 99, 3-((6-(2-cyano-4-fluorophenyl)-4-(1-(trifluoromethyl)cyclopropyl-amino)pyrido[3,2-d]pyrimidin-2-ylamino)methyl)-5-(trifluoro-methyl)benzenesulfonamide] had an EC50 of under 100 nM. The same molecule returned a half-maximal cytotoxic concentration (CC50) at 3 days in series [2] (Table 2, 3 days incubation) of 1000 to 10000 nM.

Molecule `FC(F)(F)C1(Nc2nc(NCc3ccc(-n4cncn4)cc3)nc3ccc(-c4ccc(NC5CC5)nc4)nc23)CC1` [Example 127, N^2-(4-(1H-1,2,4-triazol-1-yl)benzyl)-6-(6-(cyclopropylamino)pyridin-3-yl)-N^4-(1-(trifluoromethyl)cyclopropyl)pyrido[3,2-d] pyrimidine-2,4-diamine] displayed an EC50 in series [1] of under 100 nM. For the same molecule, the CC50 at 3 days in series [2] (Table 2, 3 days incubation) fell in the range of 1000 to 10000 nM.

`C[C@@H](Nc1nc(NCC(F)(F)F)c2nc(C#Cc3cncs3)ccc2n1)c1ccc(S(N)(=O)=O)cc1` [Example 297, (R)-4-(1-(6-(2-(thiazol-5-yl)ethynyl)-4-(2,2,2-trifluoro-ethylamino)pyrido[3,2-d]pyrimidin-2-ylamino)ethyl) benzenesulfonamide]: the EC50 in series [1] is 250 to 2000 nM. The molecule further registered a CC50 at 3 days in series [2] (Table 2, 3 days incubation) of over 10000 nM.

Molecule `c1ncn(-c2ccc(CNc3nc(OC4CC4)c4nc(-c5cnc(OC6CC6)nc5)ccc4n3)cc2)n1` [Example 254, N-(4-(1H-1,2,4-triazol-1-yl)benzyl)-4-cyclopropoxy-6-(2-cyclopropoxypyrimidin-5-yl)pyrido[3,2-d]pyrimidin-2-amine] showed an EC50 in series [1] of under 100 nM. In series [2] (Table 2, 3 days incubation), this molecule showed a CC50 at 3 days of over 10000 nM.

In series [1], `C[C@H](Nc1nc(NCc2ccc(-n3cncn3)cc2)nc2ccc(C#CC3CC3)nc12)C(F)(F)F` [Example 292, (S)-N^2-(4-(1H-1,2,4-triazol-1-yl)benzyl)-6-(2-cyclopropyl-ethynyl)-N^4-(1,1,1-trifluoro-propan-2-yl)pyrido[3,2-d] pyrimidine-2,4-diamine] had an EC50 of 250 to 2000 nM. The molecule also returned a CC50 at 3 days in series [2] (Table 2, 3 days incubation) of over 10000 nM.

Turning to `NS(=O)(=O)c1cc(CNc2nc(NCC(F)(F)F)c3nc(-c4ccc(F)cc4)ccc3n2)ccc1F` [Example 7, 2-Fluoro-5-{[6-(4-fluoro-phenyl)-4-(2,2,2-trifluoro-ethylamino)-pyrido[3,2-d]pyrimidin-2-ylamino]-methyl}-benzenesulfonamide], in series [1], the concentration for a half-maximal effect (EC50) is under 100 nM. The molecule further displayed a half-maximal cytotoxic concentration (CC50) at 3 days in series [2] (Table 1, 3 days incubation) of 10000 to 25000 nM.

Molecule `CS(=O)(=O)Nc1cccc(CNc2nc(NC3(C(F)(F)F)CC3)c3nc(-c4ccc(F)cc4)ccc3n2)c1` [Example 87, N-(3-((6-(4-fluorophenyl)-4-(1-(trifluoromethyl)cyclopropyl-amino)pyrido[3,2-d]pyrimidin-2-ylamino)methyl)phenyl) methanesulfonamide] showed an EC50 in series [1] of 100 to 250 nM. The same molecule returned a CC50 at 3 days in series [2] (Table 2, 3 days incubation) of over 10000 nM.

As to `COc1ccc(-c2ccc3nc(NCc4ccc(S(N)(=O)=O)cc4)nc(NCC(F)(F)F)c3n2)cc1S(N)(=O)=O` [Example 225, 4-((6-(4-methoxy-3-(aminosulfonyl)phenyl)-4-(2,2,2-trifluoroethylamino)pyrido[3,2-d]pyrimidin-2-ylamino)methyl)benzene-sulfonamide], in series [1], the EC50 was under 100 nM. This molecule also showed a CC50 at 3 days in series [2] (Table 2, 3 days incubation) of over 10000 nM.

In turn, `Fc1ccc(-c2ccc3nc(NCc4cccc(-n5cccn5)c4)nc(NCC(F)(F)F)c3n2)cc1` [Example 2, 6-(4-Fluoro-phenyl)-N2-(3-pyrazol-1-yl-benzyl)-N4-(2,2,2-trifluoro-ethyl)-pyrido[3,2-d]pyrimidine-2,4-diamine] yielded an EC50 in series [1] of under 100 nM. Further, the CC50 at 3 days in series [2] (Table 1, 3 days incubation) was over 25000 nM.

Turning to `COCC#Cc1ccc2nc(NCc3cc(C(F)(F)F)cc(S(N)(=O)=O)c3)nc(NCC(F)(F)F)c2n1` [Example 282, 3-((6-(3-methoxyprop-1-ynyl)-4-(2,2,2-trifluoroethylamino)pyrido[3,2-d]pyrimidin-2-ylamino)methyl)-5-(trifluoro-methyl)benzenesulfonamide], the EC50 in series [1] fell in the range of 250 to 2000 nM. This molecule returned a CC50 at 3 days in series [2] (Table 2, 3 days incubation) of over 10000 nM.

For the molecule `NS(=O)(=O)c1cc(CNc2nc(NCC(F)(F)F)c3nc(-c4ccc(F)cc4)ccc3n2)cc(C(F)(F)F)c1` [Example 8, 3-{[6-(4-Fluoro-phenyl)-4-(2,2,2-trifluoro-ethylamino)-pyrido[3,2-d]pyrimidin-2-ylamino]-methyl}-5-trifluoromethyl-benzenesulfonamide], in series [1], the concentration giving a half-maximal response (EC50) is 250 to 2000 nM. The same molecule returned a CC50 at 3 days in series [2] (Table 1, 3 days incubation) of over 25000 nM.

As for `CC(C)Oc1nc(N[C@H](C)c2ccc(S(N)(=O)=O)cc2)nc2ccc(C#CC3CC3)nc12` [Example 304, (R)-4-(1-(6-(2-cyclopropyl-ethynyl)-4-isopropoxypyrido [3,2-d]pyrimidin-2-ylamino)ethyl)benzenesulfonamide], the 50% effective concentration (EC50) in series [1] is under 100 nM. This molecule had a cytotoxic concentration (CC50) at 3 days in series [2] (Table 2, 3 days incubation) of over 10000 nM.

Consider `CS(=O)(=O)c1cccc(CNc2nc(NCC(F)(F)F)c3nc(-c4ccc(OC(F)F)c(S(C)(=O)=O)c4)ccc3n2)c1` [Example 174, N^2-(3-(methylsulfonyl)benzyl)-6-(4-(difluoromethoxy)-3-(methylsulfonyl)phenyl)-N^4-(2,2,2-trifluoroethyl)pyrido [3,2-d]pyrimidine-2,4-diamine], for which the EC50 in series [1] is under 100 nM. This molecule returned a CC50 at 3 days in series [2] (Table 2, 3 days incubation) of under 1000 nM.

Take `C=Cc1ccc2nc(N[C@H](C)c3ccc(S(N)(=O)=O)cc3)nc(NCC(F)(F)F)c2n1` [Example 312, (R)-4-(1-(4-(2,2,2-trifluoro-ethylamino)-6-vinylpyrido [3,2-d]pyrimidin-2-ylamino)ethyl)benzenesulfonamide]: the half-maximal effective concentration (EC50) in series [1] lay in the range of 100 to 250 nM. In addition, the CC50 at 3 days in series [2] (Table 2, 3 days incubation) is over 10000 nM.

In turn, `NS(=O)(=O)c1cc(Cl)cc(CNc2nc(NC3(C(F)(F)F)CC3)c3nc(-c4ccc(C(=O)NC5(C(F)(F)F)CC5)cc4)ccc3n2)c1` [Example 95, 3-chloro-5-((6-(4-(1-(trifluoromethyl)cyclopropyl-aminocarbonyl)phenyl)-4-(1-(trifluoromethyl)cyclopropyl-amino)pyrido[3,2-d]pyrimidin-2-ylamino)methyl)benzene-sulfonamide] had an EC50 in series [1] of under 100 nM. Moreover, the 50% cytotoxic concentration (CC50) at 3 days in series [2] (Table 2, 3 days incubation) lay within 1000 to 10000 nM.

`C[C@@H](Nc1nc(NCC(F)(F)F)c2nc(-c3cccc(S(C)(=O)=O)c3)ccc2n1)c1ccc(S(=O)(=O)NC(C)(C)C)cc1` [Example 136, N-tert-butyl-4-((R)-1-(6-(3-(methylsulfonyl)phenyl)-4-(2,2,2-trifluoroethylamino)pyrido[3,2-d]pyrimidin-2-ylamino)ethyl)benzene-sulfonamide] yielded an EC50 in series [1] of under 100 nM. This molecule also showed a CC50 at 3 days in series [2] (Table 2, 3 days incubation) of over 10000 nM.

On to `CCOc1ccc(-c2ccc3nc(NCc4ccc(-n5cncn5)cc4)nc(NCC(F)(F)F)c3n2)cn1` [Example 229, N^2-(4-(1H-1,2,4-triazol-1-yl)benzyl)-6-(6-ethoxypyridin-3-yl)-N^4-(2,2,2-trifluoroethyl) pyrido[3,2-d]pyrimidine-2,4-diamine], for which the EC50 in series [1] was under 100 nM. Moreover, the half-maximal cytotoxic concentration (CC50) at 3 days in series [2] (Table 2, 3 days incubation) was over 10000 nM.

The EC50 is the concentration needed to bring the measured effect to its halfway point. Low values mean higher potency in that assay, high ones lower potency in that assay. A word on the CC50: it is the concentration giving 50% cytotoxicity. Read a high CC50 as lower toxicity to the cells.

The values above are taken from patent US8536187B2 (Gilead Sciences, Inc., priority 2008, dated 2013).
